Assay results: patent US20040014653A1, “Peptide composition” (priority 2000, published 2004)

System: Human keratinocytes (HatKat)
Assay: Growth of keratinocytes, cell count in Coulter counter after three days
Type: cell-based
Procedure: Human keratinocytes (HatKat) were grown in keratinocyte growth medium (TCS Cellworks Ltd.) until 20% confluence. Then, in the same medium, the keratinocytes were grown for three days with 0.5% foetal calf serum (FCS), at which point the cells were counted in a Coulter® counter. The cell numbers obtained are set out in Table 3 below.

## EGF: epidermal growth factor, comparator growth factor in keratinocyte growth test
10 ng/mi EGF versus medium with 0.5% FCS
  increase in the growth of keratinocytes (in words): relatively modest increase
Medium with 0.5% FCS + 10 ng/ml EGF, three days
  Number of cells: 29,356
